Test results from patent US10829452B2, “Histone methyltransferase inhibitors” (GLOBAL BLOOD THERAPEUTICS, INC., priority 2016, dated 2020).
Where a name gives a salt, the structure may show the parent alone.

What follows are compounds tested against T1, G9a (Homo sapiens, UniProt Q96KQ7) (assay: G9a AlphaLISA enzymatic activity assay). Settings: 0.15 nM G9a, 15 uM S-adenosyl-methionine, 100 nM biotinylated histone 3 peptide (1-21), 1 hour at room temperature; read-out: G9a in (uM) (IC50, concentration that produced 50% inhibition).
T1 sequence (Q96KQ7 1-1210): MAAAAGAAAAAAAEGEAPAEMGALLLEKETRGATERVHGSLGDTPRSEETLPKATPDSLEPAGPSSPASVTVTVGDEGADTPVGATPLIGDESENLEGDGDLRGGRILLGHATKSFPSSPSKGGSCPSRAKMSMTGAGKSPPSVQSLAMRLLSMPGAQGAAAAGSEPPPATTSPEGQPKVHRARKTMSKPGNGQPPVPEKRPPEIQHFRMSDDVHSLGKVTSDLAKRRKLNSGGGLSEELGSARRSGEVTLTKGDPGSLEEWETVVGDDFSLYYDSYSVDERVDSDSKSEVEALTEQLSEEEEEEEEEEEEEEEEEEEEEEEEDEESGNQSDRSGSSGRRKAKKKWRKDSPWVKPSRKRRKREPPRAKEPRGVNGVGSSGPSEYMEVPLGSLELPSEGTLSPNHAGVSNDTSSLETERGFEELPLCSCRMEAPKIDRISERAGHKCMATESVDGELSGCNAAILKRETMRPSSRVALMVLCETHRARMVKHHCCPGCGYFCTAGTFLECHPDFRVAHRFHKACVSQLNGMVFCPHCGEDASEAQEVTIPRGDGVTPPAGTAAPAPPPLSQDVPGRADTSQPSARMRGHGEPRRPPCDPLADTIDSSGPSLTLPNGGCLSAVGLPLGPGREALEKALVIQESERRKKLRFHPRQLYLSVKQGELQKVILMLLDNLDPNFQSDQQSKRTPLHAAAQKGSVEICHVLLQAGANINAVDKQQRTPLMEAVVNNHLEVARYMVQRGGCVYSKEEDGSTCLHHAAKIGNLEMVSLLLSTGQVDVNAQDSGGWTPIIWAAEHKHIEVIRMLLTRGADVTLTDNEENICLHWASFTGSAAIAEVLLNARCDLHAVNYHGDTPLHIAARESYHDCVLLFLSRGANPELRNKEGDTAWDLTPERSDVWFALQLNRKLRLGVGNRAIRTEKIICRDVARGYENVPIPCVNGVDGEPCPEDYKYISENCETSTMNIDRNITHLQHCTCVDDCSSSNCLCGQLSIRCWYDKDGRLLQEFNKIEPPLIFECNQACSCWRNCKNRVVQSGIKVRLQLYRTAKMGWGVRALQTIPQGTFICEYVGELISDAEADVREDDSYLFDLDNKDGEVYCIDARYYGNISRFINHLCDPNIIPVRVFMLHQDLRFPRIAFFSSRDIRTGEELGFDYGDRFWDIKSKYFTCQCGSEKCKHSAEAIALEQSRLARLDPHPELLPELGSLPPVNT
Format: biochemical
Method in brief: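 Human G9a (0.15 nM) methylated 100 nM biotinylated histone H3(1-21) peptide with 15 uM SAM in Tris-HCl pH9 buffer with NaCl, Tween-20 and DTT, 1 h at room temperature. H3K9me2 was detected by AlphaLISA acceptor/streptavidin donor beads (20 ug/mL each); IC50 from percent inhibition across compound dilutions.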

Row | SMILES | IC50 [µM]
1 | COc1cc2c3c(c(NC(C)C)nc2cc1OCCCN1CCCC1)CCC(C)N3 (centres unmarked) [Example 30, 9-methoxy-2-methyl-N-(propan-2-yl)-8-[3-(pyrrolidin-1-yl)propoxy]-1H,2H,3H,4H-benzo[h]1,6-naphthyridin-5-amine formate] | 0.008
2 | CNc1nc2cc(OCCCN3CCCC3)c(OC)cc2c2c1CC(O)CC2 (centres unmarked) [Example 61, 2-methoxy-6-(methylamino)-3-[3-(pyrrolidin-1-yl)propoxy]-7,8,9,10-tetrahydrophenanthridin-8-ol formate] | 0.14
3 | COc1cc2c3c(cnc2cc1OCCCN1CCCC1)CC(C)(C)N3 [Example 35, 1-[3-({8-methoxy-2,2-dimethyl-1H,2H,3H-pyrrolo[3,2-c]quinolin-7-yl}oxy)propyl]pyrrolidine formate] | 0.012
4 | COc1cc2nc(NC(C)C)c3c(c2cc1OCCCN1CCCC1)COC3 [Example 45, 7-methoxy-N-(propan-2-yl)-8-[3-(pyrrolidin-1-yl)propoxy]-1H,3H-furo[3,4-c]quinolin-4-amine] | 4.3
5 | COc1cc2c3c(c(N[C@H](C)C4CC4)nc2cc1OCCCN1CCCC1)CCC3 [Example 89, N-[(1R)-1-cyclopropylethyl]-8-methoxy-7-[3-(pyrrolidin-1-yl)propoxy]-1H,2H,3H-cyclopenta[c]quinolin-4-amine formate] | 0.14
6 | CC[C@@H](C)Nc1nc2cc(OCCCN3CCCC3)c(OC)cc2c2c1CCC2 [Example 100, N-[(2R)-butan-2-yl]-8-methoxy-7-[3-(pyrrolidin-1-yl)propoxy]-1H,2H,3H-cyclopenta[c]quinolin-4-amine formate] | 0.047
7 | COc1cc2c3c(c(NC(C)C)nc2cc1OCC1CCN(C)C1)CCCC3 (centres unmarked) [Example 51, 2-methoxy-3-[(1-methylpyrrolidin-3-yl)methoxy]-N-(propan-2-yl)-7,8,9,10-tetrahydrophenanthridin-6-amine formate] | 0.88
8 | CCNc1nc2cc(OCCCN3CCCC3)c(OC)cc2c2c1CC(C)(C)C2 [Example 74, N-ethyl-8-methoxy-2,2-dimethyl-7-[3-(pyrrolidin-1-yl)propoxy]-1H,2H,3H-cyclopenta[c]quinolin-4-amine formate] | 0.015
9 | COc1cc2c3c(c(N[C@H]4C[C@H](O)C4)nc2cc1OCCCN1CCCC1)CCCC3 [Example 64, 3-({2-methoxy-3-[3-(pyrrolidin-1-yl)propoxy]-7,8,9,10-tetrahydrophenanthridin-6-yl}amino)cyclobutan-1-ol formate] | 0.5
10 | COc1cc2c3c(c(O)nc2cc1OCCCN1CCCC1)CCCC3 [Example 38, 2-methoxy-3-[3-(pyrrolidin-1-yl)propoxy]-7,8,9,10-tetrahydrophenanthridin-6-ol trifluoroacetate] | 3
11 | COc1cc2c3c(c(NC(C)=O)nc2cc1OCCCN1CCCC1)CCC3 [Example 14, N-{8-methoxy-7-[3-(pyrrolidin-1-yl)propoxy]-1H,2H,3H-cyclopenta[c]quinolin-4-yl}acetamide trifluoroacetate] | 0.19
12 | COc1cc2c3c(c(NCCSC)nc2cc1OCCCN1CCCC1)CCC3 [Example 120, 8-methoxy-N-[2-(methylsulfanyl)ethyl]-7-[3-(pyrrolidin-1-yl)propoxy]-1H,2H,3H-cyclopenta[c]quinolin-4-amine formate] | 0.075
13 | CNc1nc2cc(OCCCN3CCCC3)c(OC)cc2c2c1CC(O)CC2 (centres unmarked) [Example 20, 2-methoxy-6-(methylamino)-3-[3-(pyrrolidin-1-yl)propoxy]-7,8,9,10-tetrahydrophenanthridin-8-ol formate] | 0.14
14 | COc1cc2c3c(c(NC(C)C)nc2cc1OCCCN1CCCC1)CC(O)CC3 (centres unmarked) [Example 68, 2-methoxy-6-[(propan-2-yl)amino]-3-[3-(pyrrolidin-1-yl)propoxy]-7,8,9,10-tetrahydrophenanthridin-8-ol trifluoroacetate] | 0.11
15 | COc1cc2c3c(c(C)nc2cc1OCCCN1CCCC1)CCCN3 [Example 28, 1-[3-({9-methoxy-5-methyl-1H,2H,3H,4H-benzo[h]1,6-naphthyridin-8-yl}oxy)propyl]pyrrolidine trifluoroacetate] | 0.006
16 | COc1cc2c3c(c(N(C)C4CCCC4)nc2cc1OCCCN1CCCC1)CCC3 [Example 73, N-cyclopentyl-8-methoxy-N-methyl-7-[3-(pyrrolidin-1-yl)propoxy]-1H,2H,3H-cyclopenta[c]quinolin-4-amine trifluoroacetate] | 1.9
17 | COc1cc2c3c(c(C4CCCC4)nc2cc1OCCCN1CCCC1)CCC3 [Example 109, 1-[3-({4-cyclopentyl-8-methoxy-1H,2H,3H-cyclopenta[c]quinolin-7-yl}oxy)propyl]pyrrolidine formate] | 0.5
18 | COc1ccc(CNc2nc3cc(OCCCN4CCCC4)c(OC)cc3c3c2CCC3)c(OC)c1 [Example 115, N-[(2,4-dimethoxyphenyl)methyl]-8-methoxy-7-[3-(pyrrolidin-1-yl)propoxy]-1H,2H,3H-cyclopenta[c]quinolin-4-amine formate] | 0.009
19 | COc1cc2c3c(c(N[C@@H]4CCOC4)nc2cc1OCCCN1CCCC1)CCC3 [Example 17, 8-methoxy-N-[(3R)-oxolan-3-yl]-7-[3-(pyrrolidin-1-yl)propoxy]-1H,2H,3H-cyclopenta[c]quinolin-4-amine formate] | 0.21
20 | COc1cc2c3c(c(NC(C)C)nc2cc1OCCCN(C)C)CCC3 [Example 92, 7-[3-(dimethylamino)propoxy]-8-methoxy-N-(propan-2-yl)-1H,2H,3H-cyclopenta[c]quinolin-4-amine formate] | 0.059
21 | COc1cc2c3c(c(NCCC#N)nc2cc1OCCCN1CCCC1)CCC3 [Example 119, 3-({8-methoxy-7-[3-(pyrrolidin-1-yl)propoxy]-1H,2H,3H-cyclopenta[c]quinolin-4-yl}amino)propanenitrile formate] | 0.11
22 | COc1cc2c3c(c(NC(C)C)nc2cc1OCCCN1CCCC1)CC(C)(C)N3 [Example 25, 8-methoxy-2,2-dimethyl-N-(propan-2-yl)-7-[3-(pyrrolidin-1-yl)propoxy]-1H,2H,3H-pyrrolo[3,2-c]quinolin-4-amine trifluoroacetate] | 0.005
23 | COc1cc2c3c(c(NC4CC4)nc2cc1OCCCN1CCCC1)COC3 [Example 48, N-cyclopropyl-8-methoxy-7-[3-(pyrrolidin-1-yl)propoxy]-1H,3H-furo[3,4-c]quinolin-4-amine] | 0.97
24 | COc1cc2c3c(c(N)nc2cc1OCCCN1CCCC1)CC(C)(C)C3 [Example 118, 8-methoxy-2,2-dimethyl-7-[3-(pyrrolidin-1-yl)propoxy]-1H,2H,3H-cyclopenta[c]quinolin-4-amine formate] | 0.018
25 | COc1cc2c3c(c(N[C@@H](C)C4CC4)nc2cc1OCCCN1CCCC1)CCC3 [Example 88, N-[(1S)-1-cyclopropylethyl]-8-methoxy-7-[3-(pyrrolidin-1-yl)propoxy]-1H,2H,3H-cyclopenta[c]quinolin-4-amine formate] | 0.003
26 | COc1cc2c3c(c(N)nc2cc1OCCCN1CCCC1)CCC3 [Example 116, 8-methoxy-7-[3-(pyrrolidin-1-yl)propoxy]-1H,2H,3H-cyclopenta[c]quinolin-4-amine formate] | 0.006
27 | COc1cc2c3c(c(NC(C)C)nc2cc1OCCCN1CCCC1)CCCC3 [Example 13, 2-methoxy-N-(propan-2-yl)-3-[3-(pyrrolidin-1-yl)propoxy]-7,8,9,10-tetrahydrophenanthridin-6-amine formate] | 0.042
28 | COc1cc2c3c(c(NC4CCN(C(C)C)CC4)nc2cc1OCCCN1CCCC1)CCC3 [Example 43, N-{8-methoxy-7-[3-(pyrrolidin-1-yl)propoxy]-1H,2H,3H-cyclopenta[c]quinolin-4-yl}-1-(propan-2-yl)piperidin-4-amine formate] | 1.7
29 | COc1cc2c3c(c(NC(C)C)nc2cc1OCCCN1CCCCC1)CCC3 [Example 85, 8-methoxy-7-[3-(piperidin-1-yl)propoxy]-N-(propan-2-yl)-1H,2H,3H-cyclopenta[c]quinolin-4-amine formate] | 0.66
